According to EP4806911A1, “TRIPLE AGONIST COMPOUND” (Chengdu Aoda Biotechnology Co., Ltd, priority 2023, dated 2025):

Test: Preliminary pharmacokinetic characteristic evaluation
Format: in vivo, cynomolgus monkeys
Details: for half-life: cynomolgus monkey, sc, male cynomolgus monkeys, administered subcutaneously at 0.2 mg/kg, plasma, LC-MS; for half-lives: cynomolgus monkeys, administered subcutaneously
Experimental: Among the above compounds, the principle of modification for long-acting was essentially the same.
The test animals were male cynomolgus monkeys. Two animals were used for each compound. The compounds were administered subcutaneously at a dose of 0.2 mg/kg. Blood samples were collected via intravenous sampling prior to administration (0 h) and at 1 h, 2 h, 3 h, 4 h, 8 h, 12 h, 18 h, 24 h, 48 h, 96 h, 144 h, and 168 h after administration. Plasma samples were obtained by centrifugation. The plasma concentrations of the compounds were respectively determined by liquid chromatography - mass spectrometry (LC-MS).

SMILES | half-life | half-lives
CC[C@H](C)[C@H](NC(=O)[C@H](Cc1ccccc1)NC(=O)[C@H](C)NC(=O)C(C)(C)NC(=O)[C@H](CCC(N)=O)NC(=O)[C@H](C)NC(=O)[C@H](CCCCNC(=O)COCCOCCNC(=O)CCC[C@H](NC(=O)CCCCCCCCCCCCCCCCCCC(=O)O)C(=O)O)NC(=O)[C@H](CCCCN)NC(=O)[C@H](CC(=O)O)NC(=O)[C@H](CC(C)C)NC(=O)C(C)(CC(C)C)NC(=O)[C@@H](NC(=O)[C@H](CO)NC(=O)[C@H](Cc1ccc(O)cc1)NC(=O)[C@H](CC(=O)O)NC(=O)[C@H](CO)NC(=O)[C@@H](NC(=O)C(C)(Cc1ccccc1F)NC(=O)[C@@H](NC(=O)CNC(=O)[C@H](CCC(N)=O)NC(=O)C(C)(C)NC(=O)[C@@H](N)Cc1ccc(O)cc1)[C@@H](C)O)[C@@H](C)O)[C@@H](C)CC)C(=O)N[C@@H](CCC(=O)O)C(=O)N[C@@H](Cc1ccc(O)cc1)C(=O)N[C@@H](CC(C)C)C(=O)N[C@@H](CC(C)C)C(=O)N[C@@H](CCC(=O)O)C(=O)NCC(=O)NCC(=O)N1CCC[C@H]1C(=O)N[C@@H](CO)C(=O)N[C@@H](CO)C(=O)NCC(=O)N[C@@H](C)C(=O)N1CCC[C@H]1C(=O)N1CCC[C@H]1C(=O)N1CCC[C@H]1C(=O)N[C@@H](CO)C(N)=O (stereo partly shown) [Compound 6] | 94.7 h | greater than 80 hours
CC[C@H](C)[C@H](NC(=O)[C@H](Cc1ccccc1)NC(=O)[C@H](C)NC(=O)C(C)(C)NC(=O)[C@H](CCC(N)=O)NC(=O)[C@H](C)NC(=O)[C@H](CCCCNC(=O)COCCOCCNC(=O)CCC[C@H](NC(=O)CCCCCCCCCCCCCCCCCCC(=O)O)C(=O)O)NC(=O)[C@H](CCCCN)NC(=O)[C@H](CC(=O)O)NC(=O)[C@H](CC(C)C)NC(=O)C(C)(CC(C)C)NC(=O)[C@@H](NC(=O)[C@H](CO)NC(=O)[C@H](Cc1ccc(O)cc1)NC(=O)[C@H](CC(=O)O)NC(=O)[C@H](CO)NC(=O)[C@@H](NC(=O)C(C)(Cc1ccccc1)NC(=O)[C@@H](NC(=O)CNC(=O)[C@H](CCC(N)=O)NC(=O)C(C)(C)NC(=O)[C@@H](N)Cc1ccc(O)cc1)[C@@H](C)O)[C@@H](C)O)[C@@H](C)CC)C(=O)N[C@@H](CCC(=O)O)C(=O)N[C@@H](Cc1ccc(O)cc1)C(=O)N[C@@H](CC(C)C)C(=O)N[C@@H](CC(C)C)C(=O)N[C@@H](CCC(=O)O)C(=O)NCC(=O)NCC(=O)N1CCC[C@H]1C(=O)N[C@@H](CO)C(=O)N[C@@H](CO)C(=O)NCC(=O)N[C@@H](C)C(=O)N1CCC[C@H]1C(=O)N1CCC[C@H]1C(=O)N1CCC[C@H]1C(=O)N[C@@H](CO)C(N)=O (stereo partly shown) [Compound 2] | 83.5 h | greater than 80 hours
